Experimental data: the supplement of paper PMC10307832

Key:
Assay in all cases: relative viability (nuclei count vs DMSO), 5 days (fraction); higher = more cells survive
Quizartinib + Decitabine = compound: CC(C)(C)c1cc(NC(=O)Nc2ccc(-c3cn4c(n3)sc3cc(OCCN5CCOCC5)ccc34)cc2)no1 [Quizartinib] + Nc1ncn([C@H]2C[C@H](O)[C@@H](CO)O2)c(=O)n1 [Decitabine] (partner 2 µM)
Outline: (§1)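 Cells from lung cancer lines were seeded into 1536-well plates and, one day later, dosed by pin tool. Treatments were either a single drug or a fixed dose of an anchor drug with five library-drug doses (not always all listed) in √10 steps. After 5 days, nuclei were stained in a one-step fixation (final 0.05% Triton X-100, 1% formaldehyde, 1 ug/ml Hoechst) and counted on 4× images, and relative viability is the treated-to-vehicle nuclei ratio, as the median of duplicate plates.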

Quizartinib + Crizotinib = compound: CC(C)(C)c1cc(NC(=O)Nc2ccc(-c3cn4c(n3)sc3cc(OCCN5CCOCC5)ccc34)cc2)no1 [Quizartinib] + C[C@@H](Oc1cc(-c2cnn(C3CCNCC3)c2)cnc1N)c1c(Cl)ccc(F)c1Cl [Crizotinib] (partner 1 µM)
Outline: as §1

YM155 + Tozasertib = compound: COCC[n+]1c2c(n(Cc3cnccn3)c1C)C(=O)c1ccccc1C2=O [YM155] + Cc1cc(Nc2cc(N3CCN(C)CC3)nc(Sc3ccc(NC(=O)C4CC4)cc3)n2)n[nH]1 [Tozasertib] (partner 0.1 µM)
Outline: as §1

YM155 + Vorinostat = compound: COCC[n+]1c2c(n(Cc3cnccn3)c1C)C(=O)c1ccccc1C2=O [YM155] + O=C(CCCCCCC(=O)Nc1ccccc1)NO [Vorinostat] (partner 1 µM)
Outline: as §1

Row | Cell Line | relative viability (Quizartinib + Decitabine; first compound 0.001 µM) | relative viability (Quizartinib + Decitabine; first compound 0.003162 µM) | relative viability (Quizartinib + Decitabine; first compound 0.01 µM) | relative viability (Quizartinib + Decitabine; first compound 0.03162 µM) | relative viability (Quizartinib + Decitabine; first compound 0.1 µM) | relative viability (Quizartinib + Crizotinib; first compound 0.001 µM) | relative viability (Quizartinib + Crizotinib; first compound 0.003162 µM) | relative viability (Quizartinib + Crizotinib; first compound 0.01 µM) | relative viability (Quizartinib + Crizotinib; first compound 0.03162 µM) | relative viability (Quizartinib + Crizotinib; first compound 0.1 µM) | relative viability (YM155 + Tozasertib; first compound 0.002 µM) | relative viability (YM155 + Tozasertib; first compound 0.006325 µM) | relative viability (YM155 + Tozasertib; first compound 0.02 µM) | relative viability (YM155 + Tozasertib; first compound 0.06325 µM) | relative viability (YM155 + Vorinostat; first compound 0.002 µM) | relative viability (YM155 + Vorinostat; first compound 0.006325 µM) | relative viability (YM155 + Vorinostat; first compound 0.02 µM) | relative viability (YM155 + Vorinostat; first compound 0.06325 µM)
1 | NCI-H441 | 0.236 | 0.247 | 0.213 | 0.238 | 0.278 | 0.527 | 0.624 | 0.896 | 0.673 | 0.969 | 0.559 | 0.63 | 0.645 | 0.467 | 0.741 | 0.716 | 0.741 | 0.268
2 | NCI-H460 |  | 0.454 | 0.613 |  | 0.459 | 0.708 | 0.842 | 1.02 |  | 0.416 | 0.604 | 0.468 | 0.535 | 0.413 | 0.706 | 0.727 | 0.802 | 0.688
3 | NCI-H520 |  | 0.449 | 0.501 | 0.542 | 0.462 | 0.726 | 0.686 | 0.739 | 0.726 | 0.666 | 0.432 | 0.496 | 0.48 | 0.377 | 0.824 | 0.695 | 0.736 | 0.729
4 | NCI-H596 | 1.03 | 0.938 | 1.09 | 0.993 | 0.901 | 0.971 | 1 | 1.09 | 0.932 | 0.761 | 0.847 | 0.811 | 0.953 | 1.03 | 0.554 | 0.468 | 0.676 | 0.551
5 | NCI-H647 | 0.32 | 0.369 | 0.437 | 0.405 | 0.549 | 0.9 | 0.948 | 1.31 | 1.06 | 0.847 | 0.317 | 0.302 | 0.401 | 0.303 | 0.472 | 0.484 | 0.755 | 0.388
6 | NCI-H650 | 0.319 | 0.286 | 0.342 | 0.365 | 0.384 | 0.684 | 0.525 | 0.772 | 0.628 | 0.749 | 0.742 | 0.686 | 0.764 | 0.646 | 0.364 | 0.491 | 0.5 | 0.312
7 | NCI-H661 | 0.55 | 0.5 | 0.577 | 0.561 | 0.599 | 0.905 | 0.998 | 1.07 |  | 0.856 | 0.376 | 0.358 | 0.369 | 0.285 | 0.765 | 0.784 | 0.883 | 0.364
8 | NCI-H727 | 0.781 | 0.829 | 0.933 | 0.831 | 1.29 | 0.74 |  | 0.939 | 0.772 | 0.662 | 0.38 | 0.721 | 0.615 | 0.7 | 1.32 | 1.28 | 1.27 | 1.29
9 | NCI-H838 | 0.418 | 0.48 | 0.478 | 0.466 | 0.388 | 0.787 | 0.878 | 0.767 | 0.691 | 0.368 | 0.252 | 0.275 | 0.252 | 0.19 | 0.705 | 0.759 | 0.68 | 0.377
10 | NCI-H1355 | 0.346 | 0.349 | 0.338 | 0.331 | 0.36 | 1.03 | 1.01 | 1.11 | 0.99 | 1.15 | 0.617 | 0.518 | 0.654 | 0.597 | 0.58 | 0.615 | 0.718 | 0.635
11 | NCI-H1437 | 0.402 | 0.54 | 0.567 | 0.536 | 0.499 | 0.822 | 0.849 | 0.906 | 0.687 | 0.608 | 0.421 | 0.416 | 0.455 | 0.276 | 0.83 | 0.809 | 0.833 | 0.432
12 | NCI-H1650 | 0.345 | 0.364 | 0.458 |  | 0.393 | 0.891 | 0.957 | 1.23 |  | 0.881 | 0.33 | 0.468 | 0.485 | 0.266 | 0.545 | 0.427 | 0.468 | 0.3
13 | NCI-H1651 | 0.626 | 0.642 | 0.667 | 0.612 | 0.626 | 0.757 | 0.9 | 0.877 | 0.86 | 0.896 | 0.641 | 0.686 | 0.685 | 0.33 | 0.569 | 0.538 | 0.586 | 0.605
14 | NCI-H1666 | 0.649 | 0.723 | 0.777 | 0.717 | 0.783 | 0.917 | 0.829 | 1.07 | 0.777 | 0.974 | 0.629 | 0.646 | 0.686 | 0.664 | 0.923 | 1.11 | 1.03 | 1.03
15 | NCI-H1734 | 0.504 | 0.459 | 0.656 | 0.499 | 0.485 | 0.582 | 0.656 | 0.854 | 0.602 | 0.549 | 0.268 | 0.234 | 0.26 | 0.281 | 0.826 | 0.799 | 0.891 | 0.84
16 | NCI-H1755 | 0.59 | 0.676 | 0.71 | 0.722 | 0.734 | 0.819 | 0.839 | 0.95 | 0.853 | 0.791 | 0.51 | 0.584 | 0.603 | 0.54 | 0.752 | 0.671 | 0.622 | 0.845
17 | NCI-H1915 | 0.23 | 0.252 | 0.279 | 0.263 | 0.267 | 0.83 | 0.841 | 0.905 | 0.983 | 0.944 | 0.393 | 0.458 | 0.444 | 0.36 | 0.516 | 0.519 | 0.525 | 0.533
18 | NCI-H1944 | 0.38 | 0.389 | 0.499 | 0.419 | 0.399 | 1.11 | 1.09 | 1.15 | 1.21 | 1.11 | 0.253 | 0.279 | 0.259 | 0.232 | 0.596 | 0.511 | 0.599 | 0.629
19 | NCI-H1975 | 0.361 | 0.368 | 0.632 | 0.379 | 0.358 | 1.02 | 0.929 | 0.922 | 0.986 | 1.09 | 0.715 | 0.704 | 0.859 | 0.163 | 0.661 | 0.667 | 0.641 | 0.442
20 | NCI-H1993 | 0.564 | 0.673 | 0.624 | 0.632 | 0.615 | 0.904 | 0.951 | 0.916 | 0.952 | 0.948 | 0.582 | 0.646 | 0.498 | 0.452 | 0.739 | 0.714 | 0.667 | 0.523
21 | NCI-H2009 | 0.408 | 0.295 | 0.396 | 0.373 | 0.443 | 0.984 | 1.02 | 0.994 | 0.603 | 1 | 0.739 | 0.791 | 0.776 | 0.458 | 0.685 | 0.693 | 0.726 | 0.621
22 | NCI-H2023 | 0.22 | 0.198 | 0.266 | 0.157 | 0.214 | 0.648 | 0.57 | 0.799 | 0.246 | 0.543 | 0.416 | 0.433 | 0.314 | 0.0926 | 0.738 | 0.817 | 0.792 | 0.171
23 | NCI-H2085 | 0.521 | 0.536 | 0.58 | 0.544 | 0.583 | 0.745 | 0.795 | 0.998 | 0.833 | 0.836 | 0.794 | 0.804 | 0.867 | 0.77 | 0.677 | 0.795 | 0.757 | 0.625
24 | NCI-H2087 | 0.257 | 0.238 | 0.332 | 0.249 | 0.287 | 0.717 | 0.685 | 0.883 | 0.767 | 0.863 | 0.253 | 0.23 | 0.253 | 0.219 | 0.667 | 0.759 | 0.55 | 0.44
25 | NCI-H2126 | 0.623 | 0.519 | 0.693 | 0.557 | 0.592 | 0.816 | 0.992 | 1.12 | 0.962 | 1.07 | 0.807 | 0.88 | 0.948 | 0.934 | 0.782 | 0.834 | 0.865 | 0.851
26 | NCI-H2170 | 0.424 | 0.466 | 0.468 | 0.578 | 0.44 | 1.15 | 1.11 | 1.17 | 1.2 | 1.19 | 0.831 | 0.792 | 0.784 | 0.722 | 0.725 | 0.752 | 0.863 | 0.842
27 | NCI-H2347 | 0.578 | 0.586 | 0.65 | 0.619 | 0.59 | 0.719 | 0.788 | 0.704 | 0.585 | 0.762 | 0.531 | 0.59 | 0.786 | 0.567 | 0.506 | 0.488 | 0.521 | 0.476
28 | NCI-H2405 | 0.723 | 0.72 | 0.789 | 0.737 | 0.87 | 0.791 | 0.89 | 0.946 | 0.803 | 0.925 | 0.678 | 0.704 | 0.637 | 0.513 | 0.973 | 0.964 | 0.917 | 0.533
29 | NCI-H3122 | 0.382 | 0.354 | 0.524 | 0.459 | 0.417 | 0.268 | 0.253 | 0.304 | 0.279 | 0.26 | 0.43 | 0.423 | 0.396 | 0.273 | 0.828 | 0.746 | 1.05 | 0.976
30 | PC-3 [JPC-3] | 0.837 | 0.843 | 0.841 | 0.862 | 0.831 | 0.978 | 0.961 | 1.01 | 0.955 | 0.955 | 0.879 | 0.984 | 0.869 | 0.941 | 0.746 | 0.889 | 0.855 | 0.74
